Assay [1] is described as follows: Inhibition of Dengue virus IMPDH.
The subject of assay [2] is Dengue virus. The experiment in a line: Antiviral activity against Dengue virus. In kind it is functional, organism-based.
The nature of assay [3]: Inhibition of Dengue virus N7-methyl transferase.
Assay [4] in a line: Inhibition of Dengue virus 2'-O-methyl transferase.
Assay [5] deals with Dengue virus. Kind of assay: Antiviral activity against Dengue virus by cell based assay. The class given is functional, organism-based.
The nature of assay [6]: Inhibition of Dengue virus NS3 helicase.
Assay [7] deals with Dengue virus. Kind of assay: Inhibition of Dengue virus NS3 helicase at 100 uM.
The nature of assay [8]: Inhibition of Dengue virus sEnvelope glycoprotein binding to immobilized heparin.
The test system of assay [9] is Dengue virus. Kind of assay: Antiviral activity against Dengue virus assessed as inhibition of virus-induced cytopathic effect by cell based assay. In kind it is functional, organism-based. In general terms: Damage to the host cells serves as the signal in cytopathic effect assays.
Assay [10] relates to Dengue virus. Kind of assay: Antiviral activity against Dengue virus assessed as reduction of virus yield by cell based assay. In kind it is functional, organism-based.

In ChEMBL document CHEMBL1155220, “The medicinal chemistry of dengue fever” (J Med Chem, 2009) one finds IC50, EC50 and inhibition data, which are given here for 16 molecules.

A word on the IC50: it is the concentration needed to halve the response being measured. The low end stands for higher potency, the high end for lower potency. The pIC50 is the negative decadic logarithm of the IC50, by convention in mol/L. For orientation: EC50 means the concentration giving half of the maximal effect. As a reminder, the inhibition is the relative decrease from the control value, in per cent. As usually defined, the pEC50 is the negative decadic logarithm of the EC50, by convention in mol/L.

Structures are written as SMILES. pEC50, pIC50: −log10 of the molar value. Converted amounts (≈) assume the structure as drawn.

With `COc1c(C)c2c(c(O)c1C/C=C(\C)CCC(=O)O)C(=O)OC2` [MYCOPHENOLIC ACID], the half-inhibitory concentration (IC50) in [1] was 0.1 µg/mL (≈ 0.312 µM).

As for `C#Cc1c(C(N)=O)ncn1[C@@H]1O[C@H](CO)[C@@H](O)[C@H]1O`, the IC50 in assay [1] came out at 38 µg/mL (≈ 142 µM).

The molecule `CN(CCCNC(=O)c1ccc(O)cc1)CCCNC(=O)c1ccc2cc(O)ccc2c1` had a negative logarithm of the IC50 (pIC50) in the assay with Dengue virus [2] of 3.53.

Consider `NC(=O)c1ncn([C@@H]2O[C@H](CO)[C@@H](O)[C@H]2O)n1` [RIBAVIRIN], for which the response in the assay on Dengue virus [2] was half-maximal at 49 µg/mL (≈ 201 µM) (EC50). The same molecule had a concentration for half-maximal inhibition (IC50) in [1] of 1.6 µg/mL (≈ 6.55 µM).

With `O=C(O)C1=CC(=C(c2ccc(O)c(C(=O)O)c2)c2ccc(O)c(C(=O)O)c2)C=CC1=O` [AURINTRICARBOXYLIC ACID], the figures for the pIC50 in [3] and in assay [4] were 5.64 and 3.90, respectively.

In the assay with Dengue virus [2], `CN(CCCNC(=O)c1ccc(O)cc1)CCCNC(=O)c1ccc(O)cc1` showed a pIC50 of 2.70.

Consider `CCN(CCCN(CC)C(=O)c1ccc(O)cc1)C(=O)c1ccc(O)cc1`, for which, in the assay with Dengue virus [2], the pIC50 is 2.70.

As to `O=C(O)/C=C/c1ccc(OS(=O)(=O)O)cc1`, in the assay with Dengue virus [2], the negative logarithm of the IC50 (pIC50) is 2.70.

For the molecule `O=c1cnn([C@@H]2O[C@H](CO)[C@@H](O)[C@H]2O)c(=O)[nH]1` [6-AZAURIDINE], in the assay on Dengue virus [5], it took 0.1 µg/mL to reach a half-maximal effect (EC50).

For the molecule `O[C@H]1[C@H](O)[C@@H](O)CN2CC[C@H](O)[C@H]12` [CASTANOSPERMINE], in the assay with Dengue virus [2], the negative logarithm of the IC50 (pIC50) is 6.00.

In turn, `CO[C@@H]1[C@H](O)[C@@H](CO)O[C@H]1n1cnc2c(=O)[nH][nH]c(=O)c21` showed a pIC50 in assay [6] of 4.52. In addition, the inhibition in the assay with Dengue virus [7] came to 30%.

Consider `COc1cc(NC(=O)Nc2cccc(CNC(=O)O[C@H]3CCOC3)c2)ccc1-c1cnco1` [MERIMEPODIB], for which the pIC50 with Dengue virus [2] is 5.10.

In the assay with Dengue virus [2], `CCN(CCOC(=O)/C=C/c1ccc(O)cc1)Cc1cc(Cl)ccc1O` had a negative logarithm of the IC50 (pIC50) of 4.34.

Consider `C[C@@]1(O)[C@H](O)[C@@H](CO)O[C@H]1n1ccc2c(N)ncnc21` [BETA-2'-C-METHYL-7-DEAZA-ADENOSINE], for which the negative-log EC50 (pEC50) in the assay with Dengue virus [5] was 4.82.

`Cc1ccc(C(=O)Nc2ccc(S(=O)(=O)O)c3cc(S(=O)(=O)O)cc(S(=O)(=O)O)c23)cc1NC(=O)c1cccc(NC(=O)Nc2cccc(C(=O)Nc3cc(C(=O)Nc4ccc(S(=O)(=O)O)c5cc(S(=O)(=O)O)cc(S(=O)(=O)O)c45)ccc3C)c2)c1` [SURAMIN] had a pIC50 in assay [8] of 6.15.

Regarding `CN[C@@H]1[C@@H](O)[C@@H](O[C@@H]2[C@@H](O)[C@H](O[C@H]3O[C@H]([C@@H](C)O)[C@@H](O)[C@H](O)[C@H]3N)[C@@H](N)C[C@H]2N)OC[C@]1(C)O` [GENETICIN], the results for the negative-log EC50 (pEC50) with Dengue virus [9] and with Dengue virus [10] were 5.22 and 5.40, respectively.
